Measured values taken from patent publication US10016382B2, “Method for decreasing skeletal muscle damage and/or oxidative stress in mammals” (LONZA INC., priority 2014, dated 2018).
“And” between values parts separate entries of the source, which are not always exact repeats. Equal entries are not always repeated.

Key:
Type in all cases: in vivo, dog
Labrador Retrievers = assay: Activity by Actical monitors, long (endurance) runs, Example 1; conditions: Ex.1, 250 mg/d; for Activity long runs, Least Sq Mean: average of 13 weekly long runs, mixed model
From the text: Each test dog wore an Actical activity monitor from Philips Respironics on a collar for the short higher intensity runs and also wore an Actical activity monitor for the weekly longer endurance runs. The activity data was downloaded into spread sheets along with each dogs identity. Twenty four hours after each long run during the 13 wk running program each of the dogs were scored by kennel staff for soreness or any type of lameness The exercise program was decreased in a tapering program during wk 11 and 12 to allow the dogs to rest for the final long run completed on wk 13. Pre-run serum samples from each test dog was taken 24 hr before the last endurance run. The heart rate and basal body temperature was determined for each test dog prior to the last long endurance run. The distance and number of sprints affiliated with the short runs (marks) were decreased during wk 11 back to 1200 total yd/d or 2400 yd/wk and decreased again on wk 12 to 600 yd/d or a total of 1200 yd/wk to provide rest for the final long run on wk 13. The weekly endurance run was 5 miles in the beginning, increased by ½ mile per wk and was increased to a distance of 10 miles on the 10th week. The dogs ran only a 5 mile endurance run on wk 11 and only a 2 mile endurance run on wk 12 in order to rest for the final long run during the 13th wk. The endurance (long) runs for the 40 dogs were carried out on the 5th and 6th day of each wk for both treatments. Half of the dogs were run on Friday (5th d) and half of the dogs were run on the Saturday (6th d). The exercise regimen was finalized during the 13th week of the study by resting the dogs for 3 days and then running half of the dogs from each group for a 15 mile endurance run on Monday and the remaining 20 dogs were run the 15 mile endurance run on Tuesday. The longer endurance type runs were slightly slower to enhance fat oxidation and represent an exercise intensity equivalent to 50%-65% VO2 max. Performance and Recovery Time: An Actical monitor (Philips Respironics) was worn around the neck of each dog on a collar and utilized to evaluate the amount of movement (measured total movements and intensity) for each dog for the purpose of evaluating equal work between treatments and also to evaluate the individual work intensity while completing the daily retrieves. Each dog wore the Actical monitor for each long run and wore the Actical monitor for the final 15 mile run. The Actical monitor data was downloaded to a computer for evaluation. Statistical Methods: GraphPad Prism 6.0 was used to compare means between groups for run time, food intake, body weight, and changes in blood chemistry using an unpaired t-test. Results were considered significant if a p-value of 0.05 was obtained. JMP 10.0.2 was used to create a mixed model for long runs, short runs, body composition, and blood chemistry.

creatine kinase = assay: Serum creatine kinase, Example 2 part one; conditions: for Creatine Kinase: serum
Procedure: (§1) Twenty-four hours after test dogs ran the last 15 mile endurance run, serum samples were taken to evaluate biomarkers for muscle damage and antioxidant status. Blood samples were taken 1) just prior to the beginning of the study; 2) 1 day prior to running the final 15 mile run on the 14th week; 3) 1 hour immediately following the 15 mile run; and 4) 24 hours following the final 15 mile run. After a blood sample was drawn, it was allowed to clot for 30 minutes at 25° C. before being centrifuged for 15 minutes at 2000 g at 4° C. Serum was aliquoted into 0.65 mL microcentrifuge tubes and stored at −80° C. until being assayed at the end of the study for creatine kinase, canine myoglobin, thiobarbituric acid reactive substances (TBARS), and total antioxidant capacity (TAC) using the commercially available kits described in Example 1.

[1] = test system: total antioxidant capacity (TAC); assay: Serum total antioxidant capacity (TAC), Example 2 part one; conditions: for TAC: serum
Procedure: as §1

[2] = Whole Groups, Post-Run 1 Hr, Post-Run 1 Hr
[3] = Whole Groups, Post-Run 24 Hr, Post-Run 24 Hr

## C[N+](C)(C)C[C@H](O)CC(=O)[O-] [L-carnitine]
Labrador Retrievers; Week 1, both sexes
  Activity long runs, APM/lb Mean: 1535 Movements/Mile/LB BW
Labrador Retrievers; Week 1, females
  Activity long runs, APM/lb Mean: 1825 Movements/Mile/LB BW
Labrador Retrievers; Week 1, males
  Activity long runs, APM/lb Mean: 1298 Movements/Mile/LB BW
Labrador Retrievers; Week 2, both sexes
  Activity long runs, APM/lb Mean: 1385 Movements/Mile/LB BW
Labrador Retrievers; Week 2, females
  Activity long runs, APM/lb Mean: 1616 Movements/Mile/LB BW
Labrador Retrievers; Week 2, males
  Activity long runs, APM/lb Mean: 1177 Movements/Mile/LB BW
Labrador Retrievers; Week 3, both sexes
  Activity long runs, APM/lb Mean: 1298 Movements/Mile/LB BW
Labrador Retrievers; Week 3, females
  Activity long runs, APM/lb Mean: 1559 Movements/Mile/LB BW
Labrador Retrievers; Week 3, males
  Activity long runs, APM/lb Mean: 1065 Movements/Mile/LB BW
Labrador Retrievers; Week 4, both sexes
  Activity long runs, APM/lb Mean: 1334 Movements/Mile/LB BW
Labrador Retrievers; Week 4, females
  Activity long runs, APM/lb Mean: 1522 Movements/Mile/LB BW
Labrador Retrievers; Week 4, males
  Activity long runs, APM/lb Mean: 1093 Movements/Mile/LB BW
Labrador Retrievers; Week 5, both sexes
  Activity long runs, APM/lb Mean: 1288 Movements/Mile/LB BW
Labrador Retrievers; Week 5, females
  Activity long runs, APM/lb Mean: 1582 Movements/Mile/LB BW
Labrador Retrievers; Week 5, males
  Activity long runs, APM/lb Mean: 1048 Movements/Mile/LB BW
Labrador Retrievers; Week 6, both sexes
  Activity long runs, APM/lb Mean: 1278 Movements/Mile/LB BW
Labrador Retrievers; Week 6, females
  Activity long runs, APM/lb Mean: 1472 Movements/Mile/LB BW
Labrador Retrievers; Week 6, males
  Activity long runs, APM/lb Mean: 1105 Movements/Mile/LB BW
Labrador Retrievers; Week 7, both sexes
  Activity long runs, APM/lb Mean: 1264 Movements/Mile/LB BW
Labrador Retrievers; Week 7, females
  Activity long runs, APM/lb Mean: 1391 Movements/Mile/LB BW
Labrador Retrievers; Week 7, males
  Activity long runs, APM/lb Mean: 1162 Movements/Mile/LB BW
Labrador Retrievers; Week 8, both sexes
  Activity long runs, APM/lb Mean: 1241 Movements/Mile/LB BW
Labrador Retrievers; Week 8, females
  Activity long runs, APM/lb Mean: 1437 Movements/Mile/LB BW
Labrador Retrievers; Week 8, males
  Activity long runs, APM/lb Mean: 1081 Movements/Mile/LB BW
Labrador Retrievers; Week 9, both sexes
  Activity long runs, APM/lb Mean: 1194 Movements/Mile/LB BW
Labrador Retrievers; Week 9, females
  Activity long runs, APM/lb Mean: 1355 Movements/Mile/LB BW
Labrador Retrievers; Week 9, males
  Activity long runs, APM/lb Mean: 1062 Movements/Mile/LB BW
Labrador Retrievers; Week 10, both sexes
  Activity long runs, APM/lb Mean: 1192 Movements/Mile/LB BW
Labrador Retrievers; Week 10, females
  Activity long runs, APM/lb Mean: 1385 Movements/Mile/LB BW
Labrador Retrievers; Week 10, males
  Activity long runs, APM/lb Mean: 1018 Movements/Mile/LB BW
Labrador Retrievers; Week 11, both sexes
  Activity long runs, APM/lb Mean: 1364 Movements/Mile/LB BW
Labrador Retrievers; Week 11, females
  Activity long runs, APM/lb Mean: 1655 Movements/Mile/LB BW
Labrador Retrievers; Week 11, males
  Activity long runs, APM/lb Mean: 1126 Movements/Mile/LB BW
Labrador Retrievers; Week 13, both sexes
  Activity long runs, APM/lb Mean: 1116 Movements/Mile/LB BW
Labrador Retrievers; Week 13, females
  Activity long runs, APM/lb Mean: 1251 Movements/Mile/LB BW
Labrador Retrievers; Week 13, males
  Activity long runs, APM/lb Mean: 1006 Movements/Mile/LB BW
Labrador Retrievers; both sexes
  Activity long runs, Least Sq Mean: 1317 Movements/Mile/LB BW and 1317.0647 Movements/Mile/LB BW
Labrador Retrievers; females
  Activity long runs, Least Sq Mean: 1509 Movements/Mile/LB BW and 1509.2493 Movements/Mile/LB BW
Labrador Retrievers; males
  Activity long runs, Least Sq Mean: 1124 Movements/Mile/LB BW and 1124.8801 Movements/Mile/LB BW
Creatine kinase; Ex.2 part one, 250 mg/d, 1 hour post-endurance run
  CK increase from pre-run values: 10.81 units
Creatine kinase; Ex.2 part one, 250 mg/d, 1 hour post-run
  CK values, serum: 26.39 mU/mL
Creatine kinase; Ex.2 part one, 250 mg/d, 24 hour post-run
  CK values, serum: 23.06 mU/mL
Creatine kinase; FEMALES, Baseline
  Creatine Kinase: 26.44 ± 3.08 mU · mL
Creatine kinase; FEMALES, Post-Run 1 Hr
  Creatine Kinase: 26.8 ± 1.36 mU · mL
Creatine kinase; FEMALES, Post-Run 24 Hr
  Creatine Kinase: 21.71 ± 0.79 mU · mL
Creatine kinase; FEMALES, Pre-Run
  Creatine Kinase: 17.14 ± 1.96 mU · mL
Creatine kinase; MALES, Baseline
  Creatine Kinase: 20.81 ± 2.98 mU/mL
Creatine kinase; MALES, Post-Run 1 Hr
  Creatine Kinase: 25.98 ± 1.39 mU/mL
Creatine kinase; MALES, Post-Run 24 Hr
  Creatine Kinase: 24.4 ± 1.53 mU/mL
Creatine kinase; MALES, Pre-Run
  Creatine Kinase: 14.02 ± 1.98 mU/mL
Creatine kinase; Whole Groups, Baseline
  Creatine Kinase: 23.63 ± 2.17 mU/mL
Creatine kinase; [2]
  Creatine Kinase: 26.39 ± 0.96 mU/mL
Creatine kinase; [3]
  Creatine Kinase: 23.06 ± 0.88 mU/mL
Creatine kinase; Whole Groups, Pre-Run
  Creatine Kinase: 15.58 ± 1.4 mU/mL
[1]; Ex.2 part one, 250 mg/d, post-run 24-hr
  TAC levels, serum: 0.16 mM Trolox equiv
[1]; FEMALES, Baseline
  TAC: 0.15 ± 0.01 mM Trolox Equiv
[1]; FEMALES, Post-Run 1 Hr
  TAC: 0.15 ± 0.01 mM Trolox Equiv
[1]; FEMALES, Post-Run 24 Hr
  TAC: 0.16 ± 0.01 mM Trolox Equiv
[1]; FEMALES, Pre-Run
  TAC: 0.13 ± 0.01 mM Trolox Equiv
[1]; MALES, Baseline
  TAC: 0.18 ± 0.01 mM Trolox Equiv
[1]; MALES, Post-Run 1 Hr
  TAC: 0.16 ± 0.01 mM Trolox Equiv
[1]; MALES, Post-Run 24 Hr
  TAC: 0.16 ± 0.01 mM Trolox Equiv
[1]; MALES, Pre-Run
  TAC: 0.15 ± 0.01 mM Trolox Equiv
[1]; Whole Groups, Baseline
  TAC: 0.17 ± 0.01 mM Trolox Equiv
[1]; [2]
  TAC: 0.15 ± 0.01 mM Trolox Equiv
[1]; [3]
  TAC: 0.16 ± 0.01 mM Trolox Equiv
[1]; Whole Groups, Pre-Run
  TAC: 0.14 ± 0.01 mM Trolox Equiv
